In ChEMBL document CHEMBL5728270, “Immunomodulator compounds” (2021):

Assay: Enzyme-Linked Immunosorbent Assay ELISA: 96 Well plates were coated with […] of human PD-L1 (obtained from R&D) in PBS overnight at 4° C. The wells were then blocked with 2% BSA in PBS (W/V) with 0.05% TWEEN-20 for 1 hour at 37° C. The plates were washed 3 times with PBS/0.05% TWEEN-20 and the compounds were serial diluted (1:5) in dilution medium and added to the ELISA plates. Human PD-1 and biotin 0.3 μg/mL (ACRO Biosystems) were added and incubated for 1 hour at 37° C. then washed 3 times with PBS/0.05% TWEEN-20. A second block was performed with 2% BSA in PBS (W/V)/0.05% TWEEN-20 for 10 min at 37° C. and was washed 3 times with PBS/0.05% TWEEN-20. Streptavidin-HRP was added for 1 hour at 37° C. then washed 3 times with PBS/0.05% TWEEN-20. TMB substrate was added and reacted for 20 min at 37° C. A stop solution (2 N aqueous H2SO4) was added. The absorbance was read at 450 nm using a micro-plate spectrophotometer.

SMILES: Cc1c(OCCCN2CCC(O)CC2)cccc1-c1cccc2c1CC[C@@H]2Oc1cc(OCc2cc(C#N)cc(C#N)c2)c(CN[C@@](C)(CO)C(=O)O)cc1Cl
- IC50: < 5 nM

SMILES: Cc1c(OCCCN2CCC(O)CC2)cccc1-c1cccc2c1CC[C@@H]2Oc1cc(OCc2cncc(C#N)c2)c(CN[C@H](C(=O)O)[C@@H](C)O)cc1Cl
- IC50: < 5 nM

SMILES: C[C@@](CO)(NCc1cc(Cl)c(O[C@H]2CCc3c(-c4cccc(OCCCN5CCC(O)CC5)c4Cl)cccc32)cc1OCc1cncc(C#N)c1)C(=O)O
- IC50: < 5 nM

SMILES: N#Cc1cncc(COc2cc(O[C@H]3CCc4c(-c5cccc(OCCCN6CCC(F)CC6)c5Cl)cccc43)c(Cl)cc2CN[C@H]2CCOC[C@@H]2O)c1
- IC50: < 5 nM
